Values of other authors in patent US20030031676A1, “Conjugate compounds for treating atheroma and other diseases” (Pharmacyclics, Inc., priority 1999, published 2003).

Settings: animal models

## lutetium (III) texaphyrin
  radiation sensitization activity: lack of radiation sensitization activity
